Laboratory results: the supplement of paper PMC6045584
± gives the standard deviation of the averaged measurements.

Columns and labels:
[1] = compound: CNCc1ccc(-c2[nH]c3cc(F)cc4c3c2CCNC4=O)cc1; assay: surviving fraction relative to DMSO-only wells; higher = less growth inhibition; conditions: exposure time: 5 days
Method in brief: (§1)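 Inhibitors at 0.5, 1, 5, 10, 50, 100, 500 and 1000 nM were applied continuously for five days to tumour cell lines seeded in log phase at 250–500 cells per well in 384-well plates 24 hours earlier. Viability was measured by CellTiter-Glo luminescence and expressed as surviving fraction relative to the median of DMSO-only wells. Luminescence was taken after 10 minutes at room temperature.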

CRIZOTINIB = compound: C[C@@H](Oc1cc(-c2cnn(C3CCNCC3)c2)cnc1N)c1c(Cl)ccc(F)c1Cl [CRIZOTINIB]; assay: as above; conditions: exposure time: 5 days
Method in brief: as §1

Test System | surviving fraction ([1]; 0.5 nM) | surviving fraction ([1]; 1 nM) | surviving fraction ([1]; 5 nM) | surviving fraction ([1]; 10 nM) | surviving fraction ([1]; 50 nM) | surviving fraction ([1]; 100 nM) | surviving fraction ([1]; 500 nM) | surviving fraction ([1]; 1000 nM) | surviving fraction (CRIZOTINIB; 1 nM) | surviving fraction (CRIZOTINIB; 5 nM) | surviving fraction (CRIZOTINIB; 10 nM) | surviving fraction (CRIZOTINIB; 50 nM) | surviving fraction (CRIZOTINIB; 100 nM) | surviving fraction (CRIZOTINIB; 500 nM) | surviving fraction (CRIZOTINIB; 1000 nM) | surviving fraction (CRIZOTINIB; 0.5 nM)
CCK81 LARGE INTESTINE | 0.829 ± 0.06 | 0.766 ± 0.13 | 0.861 ± 0.24 | 0.719 ± 0.12 | 0.789 ± 0.041 | 0.803 ± 0.058 | 0.914 ± 0.053 | 0.783 ± 0.023 | 0.854 ± 0.084 | 0.776 ± 0.15 | 0.788 ± 0.087 | 0.749 ± 0.11 | 0.718 ± 0.028 | 0.62 ± 0.12 | 0.315 ± 0.053 | –
G292 BONE | 0.998 ± 0.075 | 0.981 ± 0.037 | 1.05 ± 0.053 | 0.975 ± 0.012 | 0.9877 ± 0.0081 | 0.932 ± 0.021 | 0.8 ± 0.044 | 0.775 ± 0.035 | 1.04 ± 0.055 | 1.07 ± 0.012 | 1.08 ± 0.038 | 0.9452 ± 0.0094 | 0.951 ± 0.033 | 0.634 ± 0.025 | 0.41 ± 0.016 | 1.02 ± 0.037
HCC38 BREAST | 0.703 ± 0.16 | 0.805 ± 0.24 | 0.971 ± 0.31 | 0.705 ± 0.14 | 0.528 ± 0.1 | 0.607 ± 0.047 | 0.492 ± 0.22 | 0.45 ± 0.035 | 1.18 ± 0.06 | 1.31 ± 0.069 | 1.28 ± 0.041 | 1.29 ± 0.13 | 1.28 ± 0.13 | – | 0.63 ± 0.09 | 1.27 ± 0.15
HCC70 BREAST | 1.07 ± 0.061 | 1.12 ± 0.037 | 1.16 ± 0.098 | 1.1 ± 0.11 | 1.12 ± 0.12 | 1.11 ± 0.017 | 1.12 ± 0.11 | 1.12 ± 0.052 | 1.1 ± 0.13 | 1.16 ± 0.022 | – | 1.18 ± 0.1 | – | 1.07 ± 0.059 | 0.818 ± 0.12 | 1.09 ± 0.06
HMLE3 BREAST | 1.13 ± 0.039 | 1 ± 0.042 | 1.11 ± 0.051 | 1.07 ± 0.051 | 0.986 ± 0.17 | 1.03 ± 0.082 | 0.856 ± 0.14 | 0.879 ± 0.056 | – | 1.18 ± 0.081 | 1.07 ± 0.089 | 1.05 ± 0.054 | 1.04 ± 0.12 | 0.828 ± 0.062 | 0.649 ± 0.046 | 1.07 ± 0.043
HMT3552 BREAST | 0.99 ± 0.063 | 0.968 ± 0.043 | 0.95 ± 0.031 | 1 ± 0.0095 | 0.817 ± 0.037 | 0.84 ± 0.022 | 0.78 ± 0.042 | 0.723 ± 0.079 | 1.05 ± 0.073 | 1.04 ± 0.015 | 1.06 ± 0.015 | 1.07 ± 0.023 | 1.18 ± 0.035 | 0.597 ± 0.045 | 0.201 ± 0.012 | 1.01 ± 0.042
HS57T BREAST | 0.972 ± 0.021 | 0.994 ± 0.063 | 1.03 ± 0.09 | 0.979 ± 0.055 | 0.929 ± 0.077 | 0.971 ± 0.06 | 0.881 ± 0.03 | 0.865 ± 0.038 | 1.09 ± 0.056 | 1.14 ± 0.026 | 1.07 ± 0.025 | – | – | 0.676 ± 0.011 | 0.56 ± 0.046 | 1 ± 0.02
HS578T BREAST | 0.959 ± 0.13 | 0.875 ± 0.042 | 0.912 ± 0.11 | 0.927 ± 0.17 | 0.892 ± 0.062 | 0.937 ± 0.067 | 0.763 ± 0.059 | 0.801 ± 0.13 | 1.13 ± 0.17 | 1.13 ± 0.11 | 1.14 ± 0.18 | 1.07 ± 0.25 | 0.994 ± 0.14 | 0.833 ± 0.066 | 0.722 ± 0.021 | 1.04 ± 0.16
